Assay [1] concerns the target T1, human MCH receptor 1 (MCHR1) (Homo sapiens, UniProt Q99705).
T1 construct: expressed in transfected cells; host or cells: CHO cell clone 57 (membrane fraction)
Briefly: human MCH receptor 1 (MCHR1) competitive binding assay with [125I]-MCH(4-19). The note with it: test compound 0.1 μM, human MCHR1-expressing CHO cell membrane fraction; for inhibition at 0.1 µM: read-out: Binding inhibition rate % (0.1 μM). The procedure, abridged: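 Percent binding inhibition by 0.1 μM test compound, corrected for nonspecific binding defined with unlabeled MCH(1-19), is read by scintillation after filtration onto PEI-treated GF/C filters. The reaction runs 1 hr at room temperature with [125I]-MCH(4-19) and human MCHR1-CHO cell membranes in Tris-HCl pH 7.5 buffer containing EDTA and protease inhibitors.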

For assay [2], the target named is T2, human MCHR1 (Homo sapiens, UniProt Q99705).
T2 construct: expressed in transfected cells; host or cells: CHO dhfr- cells, clone #4
Briefly: MCH receptor 1 antagonistic activity, Ca2+ mobilization assay. It is filed as cell-based. Conditions: for inhibition at 0.1 µM: CHO, read-out: Inhibitory rate % (0.1 μM); for Inhibitory rate % (0.1 μM): hydrochloride. On the procedure:
Measurement of MCH Receptor 1 Antagonistic Activity of Test Compound Using Ca^2+ Mobilization Assay Using an expression vector plasmid introduced with human MCHR1 gene for expression in animal cells, human MCHR1 gene was introduced into CHO cells (CHO dhfr^−) by Lipofectamine LTX (Invitrogen). The cells were cultured in selection MEMα medium [445 mL of MEMα medium without nucleic acid and added with 5 mL of Penicillin-Streptomycin (Invitrogen) and 50 mL of dialyzed fetal bovine serum]. Colony 24 clones grown in the selection medium, which were human MCHR1 gene-expressing CHO cell candidates, were selected. […] In the following test, this human MCHR1-expressing CHO cell (clone #4) was used. An integrated dispensing function fluorometer (CellLux, PerkinElmer) was used for Ca^2+ mobilization assay. […] The medium was removed, and the cells were washed with phosphate buffered saline (PBS). […] The plate was set on a plate reader. […] The inhibition rates (%) of test compounds (0.1 μM) as antagonist activity measured using human MCHR1-expressing CHO cells (clone #4) are shown in the following Table 3.
On the technique in general: A change in cytosolic calcium serves as a functional read-out for many receptors and channels.

The mark [3] stands for this setting: test compound 0.1 μM, human MCHR1-expressing CHO cells (clone #4), ligand MCH(4-19) 2 nM.

Where a name gives a salt, the structure may show the parent alone. Read-outs that look alike come from different tables or passages of the source.

T1 sequence (Q99705 whole entry): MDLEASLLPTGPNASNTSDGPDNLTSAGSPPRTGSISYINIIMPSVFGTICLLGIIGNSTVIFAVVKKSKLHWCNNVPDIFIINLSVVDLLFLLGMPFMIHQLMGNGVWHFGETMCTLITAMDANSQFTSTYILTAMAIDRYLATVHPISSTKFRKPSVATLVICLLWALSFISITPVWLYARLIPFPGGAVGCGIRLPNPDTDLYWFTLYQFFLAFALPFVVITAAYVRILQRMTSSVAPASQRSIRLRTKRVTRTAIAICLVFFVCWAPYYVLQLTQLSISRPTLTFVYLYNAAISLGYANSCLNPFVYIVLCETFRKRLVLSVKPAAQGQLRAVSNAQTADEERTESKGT
T2 sequence (Q99705 whole entry): as above

Turning to `Cn1c(C2CC2)nc2ccc(-n3ccc(OCc4ccc(Cl)o4)cc3=O)cc21` [Example 202, 4-((5-Chloro-2-furyl)methoxy)-1-(2-cyclopropyl-1-methyl-1H-benzimidazol-6-yl)pyridin-2(1H)-one], the inhibition at 0.1 µM in assay [1] was determined as 67%; in assay [2] (setting [3]), 104%.

For the molecule `Cn1c(C2CC2)nc2ccc(-n3ccc(OCc4cc(Cl)cs4)cc3=O)cc21` [Example 228, 4-((4-Chlorothiophen-2-yl)methoxy)-1-(2-cyclopropyl-1-methyl-1H-benzimidazol-6-yl)pyridin-2(1H)-one], the values for the inhibition at 0.1 µM in assay [1] and in assay [2] (setting [3]) were 89% and 103%, respectively.

For the molecule `CCc1nc2ccc(-n3ccc(OCc4csc(F)c4)cc3=O)cc2n1C` [Example 231, 1-(2-Ethyl-1-methyl-1H-benzimidazol-6-yl)-4-((5-fluoro-3-thienyl)methoxy)pyridin-2(1H)-one], the inhibition at 0.1 µM stood at 71% in assay [1] and 95% in assay [2] (setting [3]).

In the case of `CCc1nc2ccc(-n3ccc(OCc4ccsc4)cc3=O)cc2n1C` [Example 235, 1-(2-Ethyl-1-methyl-1H-benzimidazol-6-yl)-4-(3-thienylmethoxy)pyridin-2(1H)-one], the inhibition at 0.1 µM in assay [1] is 69%; in assay [2] (setting [3]) it was 93%.

On to `CCc1nc2ccc(-n3ccc(OCc4cc(Cl)cs4)cc3=O)cc2n1C` [Example 236, 4-((4-Chlorothiophen-2-yl)methoxy)-1-(2-ethyl-1-methyl-1H-benzimidazol-6-yl)pyridin-2(1H)-one], for which the inhibition at 0.1 µM in assay [1] was 76%; in assay [2] (setting [3]), 96%.

Turning to `Cn1c(C2CC2C#N)nc2ccc(-n3ccc(OCc4ccc(Cl)cc4)cc3=O)cc21` (stereo not drawn) [Example 237, (1R*,2S*)-2-(6-(4-((4-Chlorobenzyl)oxy)-2-oxopyridin-1(2H)-yl)-1-methyl-1H-benzimidazol-2-yl)cyclopropanecarbonitrile hydrochloride], the inhibition at 0.1 µM in assay [1] was 78%. Moreover, the “Inhibitory rate % (0.1 μM)” value in assay [2] (setting [3]) was 67%.

Consider `Cn1c(C2CC2C#N)nc2ccc(-n3ccc(OCc4ccc(Cl)cc4)cc3=O)cc21` (stereo not drawn) [Example 238, (1R*,2S*)-2-(6-(4-((4-Chlorobenzyl)oxy)-2-oxopyridin-1(2H)-yl)-1-methyl-1H-benzimidazol-2-yl)cyclopropanecarbonitrile hydrochloride], for which, in assay [1] (hydrochloride, 0.1 µM), the “Binding inhibition rate % (0.1 μM)” value is on record as 65%. Further, in assay [2] (setting [3]), the “Inhibitory rate % (0.1 μM)” value is 42%.

In the case of `Cn1c(C2CC2)nc2ccc(-n3ccc(OCc4cc(F)c(F)s4)cc3=O)cc21` [Example 239, 1-(2-Cyclopropyl-1-methyl-1H-benzimidazol-6-yl)-4-((4,5-difluoro-2-thienyl)methoxy)pyridin-2(1H)-one], the inhibition at 0.1 µM in assay [1] stood at 74%; in assay [2] (setting [3]), 92%.

In the case of `Cn1c(C2CC2)nc2ccc(-n3ccc(OCc4cc(Br)cs4)cc3=O)cc21` [Example 240, 4-((4-Bromo-2-thienyl)methoxy)-1-(2-cyclopropyl-1-methyl-1H-benzimidazol-6-yl)pyridin-2(1H)-one], the inhibition at 0.1 µM in assay [1] is 91%; in assay [2] (setting [3]), 99%.

For `Cn1c(C2CC2)nc2ccc(-n3ccc(OCc4ccc(C(F)(F)F)o4)cc3=O)cc21` [Example 241, 1-(2-Cyclopropyl-1-methyl-1H-benzimidazol-6-yl)-4-((5-(trifluoromethyl)-2-furyl)methoxy)pyridin-2(1H)-one], the inhibition at 0.1 µM in assay [1] was 56%; in assay [2] (setting [3]), 76%.

As for `Cn1c(C2CC2)nc2ccc(-n3ccc(COc4ccc(F)cc4)cc3=O)cc21` [Example 243, 1-(2-Cyclopropyl-1-methyl-1H-benzimidazol-6-yl)-4-((4-fluorophenoxy)methyl)pyridin-2(1H)-one], the inhibition at 0.1 µM in assay [1] is 38%; in assay [2] (setting [3]), 72%.

For the molecule `Cn1c(C2CC2)nc2ccc(-n3ccc(OCc4cc(Br)c(F)s4)cc3=O)cc21` [Example 244, 4-((4-Bromo-5-fluoro-2-thienyl)methoxy)-1-(2-cyclopropyl-1-methyl-1H-benzimidazol-6-yl)pyridin-2(1H)-one], the inhibition at 0.1 µM in assay [1] came out at 83%; in assay [2] (setting [3]) it was 98%.

For the molecule `Cn1c(C2CC2)nc2ccc(-n3ccc(COc4ccc(Cl)cc4)cc3=O)cc21` [Example 245, 4-((4-Chlorophenoxy)methyl)-1-(2-cyclopropyl-1-methyl-1H-benzimidazol-6-yl)pyridin-2(1H)-one], the inhibition at 0.1 µM in assay [1] was found to be 59%; in assay [2] (setting [3]), 58%.

Take `Cn1c(C2CC2)nc2ccc(-n3ccc(OCc4ccc(C(F)F)s4)cc3=O)cc21` [Example 248, 1-(2-Cyclopropyl-1-methyl-1H-benzimidazol-6-yl)-4-((5-(difluoromethyl)-2-thienyl)methoxy)pyridin-2(1H)-one]: the figures for the inhibition at 0.1 µM in assay [1] and in assay [2] (setting [3]) were 79% and 97%, respectively.

For the molecule `Cn1c(C2CC2)nc2ccc(-n3ccc(OCc4csc(Br)c4)cc3=O)cc21` [Example 250, 4-((5-Bromo-3-thienyl)methoxy)-1-(2-cyclopropyl-1-methyl-1H-benzimidazol-6-yl)pyridin-2(1H)-one], the inhibition at 0.1 µM in assay [1] was found to be 92%; in assay [2] (setting [3]), 100%.

In the case of `Cn1c(C2CC2)nc2ccc(-n3ccc(OCc4nc(C(F)(F)F)cs4)cc3=O)cc21` [Example 256, 1-(2-Cyclopropyl-1-methyl-1H-benzimidazol-6-yl)-4-((4-(trifluoromethyl)-1,3-thiazol-2-yl)methoxy)pyridin-2(^1H)-one], the inhibition at 0.1 µM in assay [1] was determined as 70%; in assay [2] (setting [3]), 97%.

For the molecule `Cn1c(C2CC2)nc2ccc(-n3ccc(OCc4ccc(Br)o4)cc3=O)cc21` [Example 259, 4-((5-Bromo-2-furyl)methoxy)-1-(2-cyclopropyl-1-methyl-1H-benzimidazol-6-yl)pyridin-2(1H)-one], the inhibition at 0.1 µM in assay [1] came to 70%; in assay [2] (setting [3]) it was 100%.

As to `Cn1c(C2CC2)nc2ccc(-n3ccc(OCc4ccc(Br)cn4)cc3=O)cc21` [Example 260, 4-((5-Bromopyridin-2-yl)methoxy)-1-(2-cyclopropyl-1-methyl-1H-benzimidazol-6-yl)pyridin-2(1H)-one], the inhibition at 0.1 µM in assay [1] was 75%; in assay [2] (setting [3]), 104%.

`CCc1nc2ccc(-n3ccc(OCc4nc(C(F)(F)F)cs4)cc3=O)cc2n1C` [Example 261, 1-(2-Ethyl-1-methyl-1H-benzimidazol-6-yl)-4-((4-(trifluoromethyl)-1,3-thiazol-2-yl)methoxy)pyridin-2(1H)-one]: the inhibition at 0.1 µM in assay [1] was found to be 57%; in assay [2] (setting [3]), 100%.

On to `Cn1c(C2CC2)nc2ccc(-n3ccc(OCc4coc(Br)c4)cc3=O)cc21` [Example 262, 4-((5-Bromo-3-furyl)methoxy)-1-(2-cyclopropyl-1-methyl-1H-benzimidazol-6-yl)pyridin-2(1H)-one], for which the inhibition at 0.1 µM in assay [1] worked out at 80%; in assay [2] (setting [3]) it was 98%.

Regarding `Cc1c(C2CC2)nc2ccc(-n3ccc(OCc4ccccn4)cc3=O)cn12` [Example 263, 1-(2-Cyclopropyl-3-methylimidazo[1,2-a]pyridin-6-yl)-4-(pyridin-2-ylmethoxy)pyridin-2(1H)-one hydrochloride], the figures for the inhibition at 0.1 µM in assay [1] and in assay [2] were 30% and 52%, respectively.

In the case of `CCc1nc2ccc(-n3ccc(OCc4csc(C(F)(F)F)c4)cc3=O)cc2n1C` [Example 265, 1-(2-Ethyl-1-methyl-1H-benzimidazol-6-yl)-4-((5-(trifluoromethyl)-3-thienyl)methoxy)pyridin-2(1H)-one], the inhibition at 0.1 µM is 61% in assay [1] and 97% in assay [2] (setting [3]).

For `Cc1csc(COc2ccn(-c3ccc4nc(C5CC5)n(C)c4c3)c(=O)c2)n1` [Example 268, 1-(2-Cyclopropyl-1-methyl-1H-benzimidazol-6-yl)-4-((4-methyl-1,3-thiazol-2-yl)methoxy)pyridin-2(1H)-one], the inhibition at 0.1 µM amounted to 66% in assay [1] and 86% in assay [2] (setting [3]).

Consider `Cn1c(C2CC2)nc2ccc(-n3ccc(OCc4nc(CF)cs4)cc3=O)cc21` [Example 270, 1-(2-Cyclopropyl-1-methyl-1H-benzimidazol-6-yl)-4-((4-(fluoromethyl)-1,3-thiazol-2-yl)methoxy)pyridin-2(1H)-one], for which the values for the inhibition at 0.1 µM in assay [1] and in assay [2] (setting [3]) were 58% and 73%, respectively.

Turning to `Cn1c(C2CC2)nc2ccc(-n3ccc(OCc4nc(C5CC5)cs4)cc3=O)cc21` [Example 277, 1-(2-Cyclopropyl-1-methyl-1H-benzimidazol-6-yl)-4-((4-cyclopropyl-1,3-thiazol-2-yl)methoxy)pyridin-2(1H)-one], the figures for the inhibition at 0.1 µM in assay [1] and in assay [2] (setting [3]) were 55% and 77%, respectively.

The record behind these values is patent US9365540B2, “Benzimidazole derivatives as MCH receptor antagonists” (Takeda Pharmaceutical Company Limited, priority 2012, dated 2016).
